# Patent US10472677B2, “Translational dysfunction based therapeutics” (Translational Therapeutics, Inc., priority 2005, dated 2019)
# pEC50, pIC50: −log10 of the molar value. “Also recorded” adds a separate entry of the source.
# What was measured:
# AML-M5 progenitor cells = assay: clonogenic assay, primary CD34+ progenitors; type: cell-based; conditions: Homo sapiens, 336 h; 14 days; read-out: apparent IC50 colony formation
# From the text: (§1) Acute myelogenous leukemia (AML) M1, M5, and normal bone marrow specimens were isolated from patients and processed as described. Primary AML cells were obtained from peripheral blood of patients at the Markey Cancer Center, University of Kentucky Medical Center (Lexington, Ky.). Normal bone marrow was obtained as waste material after pathological analysis, surgical marrow harvest, or from the National Disease Research Interchange (Philadelphia). All tissues were obtained with the approval of the Institutional Review Board and appropriate informed consent. Frozen CD34^+ progenitor cells were thawed in Iscove's modified Dulbecco's (IMD) medium supplemented with 10% (vol/vol) FBS. […] Colonies with >20 cells were counted manually and experiments were repeated four times.
# FaDu cells = assay: Western blot of FaDu cells treated in culture; type: cell-based, human; conditions: 48 hours
# Protocol: FaDu cells were grown in culture as described previously and treated with Ribavirin for 48 hours prior to preparation of protein extracts and western blot analysis.
# [1] = cited from earlier work
# [2] = tested on: normal bone marrow myeloid progenitors; assay: clonogenic assay, primary CD34+ progenitors; type: cell-based, human; conditions: micromolar concentrations
# From the text: as §1
# AML-M1 progenitor cells = assay: clonogenic assay, primary CD34+ progenitors; type: cell-based, human; conditions: at ca. 1 uM / similar concentrations
# From the text: as §1
# [3] = tested on: eIF4E nuclear bodies in NIH 3T3 cells; assay: subcellular eIF4E organization, confocal immunofluorescence and fractionation/Western; type: cell-based, mouse
# Protocol: NIH 3T3 mouse fibroblasts were maintained under subconfluent conditions in DMEM (GIBCO/BRL)/10% (vol/vol) FBS/2 mM […]/0.1 mg/ml penicillin-streptomycin, at 37° C. in 5% CO2. For cell treatments, drugs were dissolved in PBS (pH 7.4) and filter-sterilized. Untreated cells received filter-sterilized PBS.
# Cells were washed with PBS, fixed in methanol for 20 min at −20° C., and blocked in PBS, 10% (vol/vol) FBS, and 0.1% (vol/vol) Tween 20 for 30 min at room temperature. Blocked cells were stained with primary antibodies against Nopp140 [1:50 (2)], Sc35 (1:50, Becton Dickinson), and eIF4E (1:50, Transduction Laboratories) in blocking solution for 3 h at room temperature. Upon washing with PBS, cells were stained with secondary antibodies in blocking solution for 30 min. FITC-conjugated donkey anti-rabbit antibody (Jackson ImmunoResearch), Texas red-conjugated donkey anti-mouse antibody, and FITC-conjugated rabbit anti-mouse antibody, as appropriate. […] Fluorescence was observed by using 100× optical magnification and 2× digital zoom using Leica TCS-SP confocal microscope using excitation wavelengths of 488, 568, or 351/364 nm. All channels were detected separately, with no observable crosstalk. […]
# Cells were washed twice with PBS and lysed by slow pipetting in 0.14 M NaCl/10 mM Tris.HCl (pH 8.4)/1.5 mM MgCl2/0.5% (vol/vol) Nonidet P-40/1 mM DTT/100 units/ml RNasin (Promega) at 4° C. […] This yielded intact nuclei, as observed by using light microscopy, with no significant cytoplasmic contamination, as evaluated using tRNA^Lys and β-actin contents. […]
# Protein from whole cells or nuclear and cytoplasmic fractions was extracted by using 0.15 M NaCl/50 mM Tris.HCl (pH 7.4)/1% (vol/vol) Nonidet P-40/0.25% (wt/vol) sodium deoxycholate/1 mM EDTA/1 mM PMSF by incubating for 30 min at 4° C. […] Bound antibodies were chemiluminescently detected by using horseradish peroxidase-conjugated secondary antibodies (Amersham Pharmacia) and SuperSignal West Pico reagent according to manufacturer's instructions (Pierce).
# [4] = tested on: eIF4E-transfected NIH 3T3 cells; assay: transformation assay, anchorage-dependent foci formation; type: cell-based; conditions: Mus musculus, NIH3T3, read-out: apparent EC50 suppression of eIF4E-mediated transformation
# [5] = tested on: 4E mediated apoptotic rescue; assay: 4E mediated apoptotic rescue; type: cell-based; conditions: FIG. 37
smiles,measurement,setting,value
"NC(=O)c1ncn([C@@H]2O[C@H](CO)[C@@H](O)[C@H]2O)n1 [Ribavirin, 1-β-D-ribofuranosyl-1,2,4-triazole-3-carboxamide]",pIC50,AML-M5 progenitor cells,~6.00
same,Actin and eIF4E protein levels,FaDu cells,remain unchanged
same,"protein level of NBS1, Cyclin D1 and ODC",FaDu cells,decreased
same,solubility in anhydrous ethanol,[1]; anhydrous ethanol,sparingly soluble
same,solubility in water,[1]; water,freely soluble
same,colony formation of normal bone marrow progenitors,[2],no effect; also recorded: lack of an effect
same,colony formation of AML-M1 progenitors,AML-M1 progenitor cells,no effect; also recorded: failed to repress colony formation
same,pEC50,"[3]; Mus musculus, NIH3T3, NIH 3T3, read-out: EC50 disruption of nuclear eIF4E bodies and cytoplasmic retention of eIF4E",6.00 to 7.00
same,concentration at which disruption of eIF4E nuclear bodies is evident,"[3]; NIH 3T3, 48 h",1 µM
same,concentration at which disruption of eIF4E nuclear bodies is nearly complete,"[3]; NIH 3T3, 48 h",10 µM
same,pEC50,[4],6.00 to 7.00
same,effect on 4E mediated apoptotic rescue,[5],blocks
